Common to all, as to test: relative viability (nuclei count vs DMSO), 5 days (fraction); higher = more cells survive
Compound in test [1]: O=c1[nH]cc(F)c(=O)[nH]1 [5-Fluorouracil] + CC(=O)c1c(C)c2cnc(Nc3ccc(N4CCNCC4)cn3)nc2n(C2CCCC2)c1=O [Palbociclib] (partner 0.5 µM)
Put shortly:
(§1)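 A single step with final 0.05% Triton X-100, 1% formaldehyde and 1 ug/ml Hoechst fixed the cells and stained nuclei 5 days after treatment. Lung cancer cell lines in 1536-well plates had been treated by pin tool the day after seeding with one drug alone or a fixed anchor-drug dose plus five library-drug doses (not always all listed) in √10 steps, and nuclei were counted on 4× images. Relative viability is the ratio of nuclei in treated wells to nuclei in vehicle wells, taken as the median of duplicate plates.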

Compound in test [2]: O=c1[nH]cc(F)c(=O)[nH]1 [5-Fluorouracil] + Cc1nc(Nc2ncc(C(=O)Nc3c(C)cccc3Cl)s2)cc(N2CCN(CCO)CC2)n1 [Dasatinib] (partner 0.075 µM)
Put shortly:
as §1

Compound in the test “Sulindac + Pemetrexed”: CC1=C(CC(=O)O)c2cc(F)ccc2/C1=C\c1ccc([S+](C)[O-])cc1 [Sulindac] + Nc1nc2[nH]cc(CCc3ccc(C(=O)N[C@@H](CCC(=O)O)C(=O)O)cc3)c2c(=O)[nH]1 [Pemetrexed] (partner 0.2 µM)
Put shortly:
as §1

Compound in test [3]: O=c1[nH]cc(F)c(=O)[nH]1 [5-Fluorouracil] + Cc1cc(Nc2cc(N3CCN(C)CC3)nc(Sc3ccc(NC(=O)C4CC4)cc3)n2)n[nH]1 [Tozasertib] (partner 0.1 µM)
Put shortly:
as §1

Compound in test [4]: O=c1[nH]cc(F)c(=O)[nH]1 [5-Fluorouracil] + Nc1nc2[nH]cc(CCc3ccc(C(=O)N[C@@H](CCC(=O)O)C(=O)O)cc3)c2c(=O)[nH]1 [Pemetrexed] (partner 0.2 µM)
Summed up: as §1

As for UMC-11, the relative viability in test [1] (first compound 0.02 µM) amounted to 0.344; in test [1] (first compound 0.2 µM), 0.364; in test [1] (first compound 0.6325 µM), 0.309; in test [2] (first compound 0.02 µM) it was 0.52; in test [2] (first compound 0.2 µM), 0.467; in test [2] (first compound 0.6325 µM), 0.438. For the same cell line, the relative viability amounted to 0.358 in test [2] (first compound 2 µM); 0.853 with Sulindac + Pemetrexed (first compound 0.08 µM); 0.808 with Sulindac + Pemetrexed (first compound 0.253 µM); 0.582 in the test with Sulindac + Pemetrexed (first compound 0.8 µM); 0.747 with Sulindac + Pemetrexed (first compound 2.53 µM); 0.868 with Sulindac + Pemetrexed (first compound 8 µM). Further, the relative viability was found to be 0.183 in test [3] (first compound 0.02 µM); 0.188 in test [3] (first compound 0.2 µM); 0.203 in test [3] (first compound 0.6325 µM); 0.188 in test [3] (first compound 2 µM); 0.807 in test [4] (first compound 0.02 µM); 0.563 in test [4] (first compound 0.2 µM). Moreover, the relative viability in test [4] (first compound 0.6325 µM) stood at 0.508.

(Values after the supplement of paper PMC10307832.)
